For this data set, the system named is HeLa cells. Put plainly: MTT assay, HeLa cells under hypoxic conditions (CoCl2). In kind it is cell-based. As for the experimental part: Taking into consideration the good cytotoxicity of C-4,2 on cancer cells and its ability to stabilise GQ structures also in the cellular environment, we decided to further evaluate its antitumor potential by testing it under hypoxic conditions, when expression of high amounts of CA IX occurs. To this aim, HeLa cells were pre-treated for 60 h with a non-toxic concentration of cobalt(II) chloride hexahydrate (CoCl2, 50 μM, Figure S14, Supporting Information), which was employed as the chemical inducer of HIF-1α to establish hypoxia[70]^,[71]. After that, HeLa were exposed to increasing concentrations of C-4,2 or vehicle, for the following 12 h, still in the presence of CoCl2. […]
For the MTT experiments in the presence of normal oxygen levels, HeLa cells were seeded in 96-well plates at a density of 15,000 cells per well (culture medium volume – 100 μL/well) and incubated at 37 °C, for 24 h. […] Finally, the optical density of the samples (at 570 nm) was measured on an ELx800 Absorbance Microplate Reader (BioTek Instruments, Inc., Winooski, VT, USA). The percentage (%) of cell survival for each condition was calculated by using the following equation: % cell survival=OD− OD0/ODCONTROL− OD0×100 where OD is the optical density of the sample, OD0 is the optical density of the background signal, and ODCONTROL is the optical density of the control sample (cells treated with vehicle, 0.5% DMSO). […]

This is an account of results in article PMC11195807, “Development of a multi-targeted chemotherapeutic approach based on G-quadruplex stabilisation and carbonic anhydrase inhibition” (Journal of Enzyme Inhibition and Medicinal Chemistry, 2024).

One may read the IC50 as the concentration that gives 50% inhibition. On to `COc1ccc2cc3[n+](cc2c1OCCCCn1cc(COc2ccc4ccc(=O)oc4c2)nn1)CCc1cc2c(cc1-3)OCO2` [Compound 37, 10-Methoxy-9–(4-(4-(((2-oxo-2H-chromen-7-yl)oxy)methyl)-1H-1,2,3-triazol-1-yl)butoxy)-5,6-dihydro-[1,3]dioxolo[4,5-g]isoquinolino[3,2-a]isoquinolin-7-ium hexafluorophosphate], for which, where the note is “12 h, hypoxia (CoCl2)”, the “cytotoxicity compared with co-exposure to equimolar berberine and C” value was “greater”. Further, the concentration for half-maximal inhibition (IC50) (Homo sapiens, 60 h pre-treatment with 50 μM CoCl2, then 12 h treatment, hypoxia) worked out at 26.5 µM.
